Reference: US8188085B2, “Antifungal agents” (Merck Sharp & Dohme Corp., priority 2008, dated 2012)

Biological target: glucan synthase (GS) prepared from Candida albicans MY1055 (Candida albicans, UniProt O13428)
Experiment: Glucan synthase inhibition (polymerization assay, 96-well)
Assay type: biochemical
Conditions: GS from C. albicans MY1055; 60 min incubation at 22° C.; read-out: Candida Albicans GS IC50 (converted)
Outline: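 Partially purified glucan synthase from C. albicans MY1055 membranes incorporated 0.5 mM ³H-UDPG with 25 μM GTP-γ-S, HEPES pH 7.5, over 60 min at 22 °C. TCA-precipitated glucan was counted by scintillation. IC50 (ng/mL) came from sigmoidal fits of duplicate 3-fold dilution series.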

Chain of glucan synthase (GS) prepared from Candida albicans MY1055 (O13428 1-1897): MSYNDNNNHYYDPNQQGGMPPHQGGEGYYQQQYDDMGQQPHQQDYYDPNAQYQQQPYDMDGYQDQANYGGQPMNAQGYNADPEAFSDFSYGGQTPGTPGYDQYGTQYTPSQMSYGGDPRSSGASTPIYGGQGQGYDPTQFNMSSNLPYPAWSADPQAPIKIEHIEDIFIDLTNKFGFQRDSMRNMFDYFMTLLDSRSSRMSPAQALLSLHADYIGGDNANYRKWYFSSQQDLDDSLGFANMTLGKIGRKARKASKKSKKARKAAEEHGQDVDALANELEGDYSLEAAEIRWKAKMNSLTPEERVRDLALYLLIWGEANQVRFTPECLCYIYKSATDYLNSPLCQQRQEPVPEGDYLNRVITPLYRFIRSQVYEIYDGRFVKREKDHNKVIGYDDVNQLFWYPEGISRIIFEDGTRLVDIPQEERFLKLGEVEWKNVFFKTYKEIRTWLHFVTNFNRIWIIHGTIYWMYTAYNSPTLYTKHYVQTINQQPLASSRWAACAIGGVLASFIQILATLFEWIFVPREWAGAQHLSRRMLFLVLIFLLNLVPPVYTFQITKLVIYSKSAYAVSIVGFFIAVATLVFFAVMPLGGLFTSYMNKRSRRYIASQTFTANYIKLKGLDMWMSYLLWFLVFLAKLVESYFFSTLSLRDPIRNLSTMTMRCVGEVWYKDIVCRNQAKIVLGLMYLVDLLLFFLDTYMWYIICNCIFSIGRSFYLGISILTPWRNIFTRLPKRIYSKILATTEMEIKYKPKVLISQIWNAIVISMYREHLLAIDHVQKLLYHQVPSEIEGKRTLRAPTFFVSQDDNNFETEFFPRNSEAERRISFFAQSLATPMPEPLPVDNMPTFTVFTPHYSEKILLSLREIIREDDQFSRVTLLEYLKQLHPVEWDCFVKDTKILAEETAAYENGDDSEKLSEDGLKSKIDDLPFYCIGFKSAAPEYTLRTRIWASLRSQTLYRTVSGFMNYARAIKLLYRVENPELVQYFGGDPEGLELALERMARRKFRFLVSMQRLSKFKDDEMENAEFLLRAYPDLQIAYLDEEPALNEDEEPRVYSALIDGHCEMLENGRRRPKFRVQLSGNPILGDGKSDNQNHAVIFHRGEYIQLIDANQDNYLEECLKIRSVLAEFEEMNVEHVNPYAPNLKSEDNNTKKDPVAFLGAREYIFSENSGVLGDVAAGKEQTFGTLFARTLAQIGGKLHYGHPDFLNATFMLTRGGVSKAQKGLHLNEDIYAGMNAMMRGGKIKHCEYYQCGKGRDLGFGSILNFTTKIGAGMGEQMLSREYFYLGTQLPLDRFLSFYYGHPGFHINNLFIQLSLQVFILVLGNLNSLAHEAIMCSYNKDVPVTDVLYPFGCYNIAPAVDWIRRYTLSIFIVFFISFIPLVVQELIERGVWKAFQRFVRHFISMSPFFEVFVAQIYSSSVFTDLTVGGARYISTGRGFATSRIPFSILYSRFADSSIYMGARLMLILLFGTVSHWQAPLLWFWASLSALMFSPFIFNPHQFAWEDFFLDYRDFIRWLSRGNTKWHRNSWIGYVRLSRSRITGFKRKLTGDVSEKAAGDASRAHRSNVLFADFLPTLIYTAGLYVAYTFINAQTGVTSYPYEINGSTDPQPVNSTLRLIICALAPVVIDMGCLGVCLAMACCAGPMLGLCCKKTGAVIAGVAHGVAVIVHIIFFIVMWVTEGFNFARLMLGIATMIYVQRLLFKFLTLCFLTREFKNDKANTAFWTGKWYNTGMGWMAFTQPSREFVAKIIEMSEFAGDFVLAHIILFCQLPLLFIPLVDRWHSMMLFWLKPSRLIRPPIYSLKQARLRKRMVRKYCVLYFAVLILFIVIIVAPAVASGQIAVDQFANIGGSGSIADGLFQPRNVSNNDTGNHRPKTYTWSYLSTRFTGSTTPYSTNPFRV

| Structure (SMILES) | IC50 |
| --- | --- |
| CC(C)[C@@H](C)[C@@]1(C)CC[C@]2(C)[C@H]3CC[C@@H]4[C@@]5(COC[C@@]4(C)[C@@H](OC[C@](C)(N)C(C)C)[C@H](n4nc(Cl)nc4Cl)C5)C3=CC[C@@]2(C)[C@@H]1C(=O)O [Example 34, (1S,4aR,6aS,7R,8R,10aR,10bR,12aR,14R,15R)-15-[[(2R)-2-amino-2,3-dimethylbutyl]oxy]-14-(3,5-dichloro-1H-1,2,4-triazol-1-yl)-8-[(1R)-1,2-dimethylpropyl]-1,6,6a,7,8,9,10,10a,10b,11,12,12a-dodecahydro-1,6a,8,10a-tetramethyl-4H-1,4a-propano-2H-phenanthro[1,2-c]pyran-7-carboxylic acid] | 46.6 nM |
| CC(C)[C@@H](C)[C@@]1(C)CC[C@]2(C)[C@H]3CC[C@@H]4[C@@]5(COC[C@@]4(C)[C@@H](OC[C@](C)(N)C(C)C)[C@H](n4nccn4)C5)C3=CC[C@@]2(C)[C@@H]1C(=O)O (single isomer, unassigned) [Example 288B] | 17.2 nM |
| CN[C@@](C)(CO[C@H]1[C@H](n2ncnc2C(=O)NC2CC2)C[C@@]23COC[C@]1(C)[C@@H]2CC[C@H]1C3=CC[C@@]2(C)[C@H](C(=O)O)[C@@](C)([C@H](C)C(C)C)CC[C@]12C)C(C)C [Example 64, (1S,4aR,6aS,7R,8R,10aR,10bR,12aR,14R,15R)-14-[5-[(cyclopropylamino)carbonyl]-1H-1,2,4-triazol-1-yl]-15-[[(2R)-2,3-dimethyl-2-(methylamino)butyl]oxy]-8-[(1R)-1,2-dimethylpropyl]-1,6,6a,7,8,9,10,10a,10b,11,12,12a-dodecahydro-1,6a,8,10a-tetramethyl-4H-1,4a-propano-2H-phenanthro[1,2-c]pyran-7-carboxylic acid] | 13.6 nM |
| CC(C)[C@@H](C)[C@@]1(C)CC[C@]2(C)[C@H]3CC[C@@H]4[C@@]5(COC[C@@]4(C)[C@@H](OC[C@H](N)C(C)(C)C)[C@H](n4cnc(N)n4)C5)C3=CC[C@@]2(C)[C@@H]1C(=O)O [Example 24, (1S,4aR,6aS,7R,8R,10aR,10bR,12aR,14R,15R)-15-[[(2R)-2-amino-3,3-dimethylbutyl]oxy]-14-(3-amino-1H-1,2,4-triazol-1-yl)-8-[(1R)-1,2-dimethylpropyl]-1,6,6a,7,8,9,10,10a,10b,11,12,12a-dodecahydro-1,6a,8,10a-tetramethyl-4H-1,4a-propano-2H-phenanthro[1,2-c]pyran-7-carboxylic acid] | 16.8 nM |
| CC(C)[C@@H](C)[C@@]1(C)CC[C@]2(C)[C@H]3CC[C@@H]4[C@@]5(COC[C@@]4(C)[C@@H](OC[C@](C)(N)C(C)C)[C@H](n4cc(Cl)cn4)C5)C3=CC[C@@]2(C)[C@@H]1C(=O)O [Example 295, (1S,4aR,6aS,7R,8R,10aR,10bR,12aR,14R,15R)-15-[[(2R)-2-amino-2,3-dimethylbutyl]oxy]-14-(4-chloro-1H-pyrazol-1-yl)-8-[(1R)-1,2-dimethylpropyl]-1,6,6a,7,8,9,10,10a,10b,11,12,12a-dodecahydro-1,6a,8,10a-tetramethyl-4H-1,4a-propano-2H-phenanthro[1,2-c]pyran-7-carboxylic acid] | 61 nM |
| CC(C)[C@@H](C)[C@@]1(C)CC[C@]2(C)[C@H]3CC[C@@H]4[C@@]5(COC[C@@]4(C)[C@@H](OC[C@](C)(N)C(C)C)[C@H](n4ncnc4-c4ccc(N)cc4)C5)C3=CC[C@@]2(C)[C@@H]1C(=O)O [Example 200, (1S,4aR,6aS,7R,8R,10aR,10bR,12aR,14R,15R)-15-[[(2R)-2-amino-2,3-dimethylbutyl]oxy]-14-[5-(4-aminophenyl)-1H-1,2,4-triazol-1-yl]-8-[(1R)-1,2-dimethylpropyl]-1,6,6a,7,8,9,10,10a,10b,11,12,12a-dodecahydro-1,6a,8,10a-tetramethyl-4H-1,4a-propano-2H-phenanthro[1,2-c]pyran-7-carboxylic acid] | 8.22 nM |
